Key:
Assay in all cases: radiometric filter-binding kinase assay, Kinase HotSpot
Conditions in all cases: compound 0.5 µM; ATP 10 µM
[1] = target: CAMK2A (human) (UniProt Q9UQM7)
[2] = target: PTK2B (human) (UniProt Q14289)
[3] = target: DAPK1 (human) (UniProt P53355)
[4] = target: STK10 (human) (UniProt O94804)
[5] = target: LCK (human) (UniProt P06239)
[6] = target: MAPK11 (human) (UniProt Q15759)
[7] = target: MAP3K3 (human) (UniProt Q99759)
[8] = target: TYK2 JH1 catalytic (human) (UniProt P29597)
[9] = target: RPS6KA3 KD1 KD2 (human) (UniProt P51812)
[10] = target: PDGFRB (human) (UniProt P09619)
[11] = target: PRKD3 (human) (UniProt O94806)
[12] = target: BTK (human) (UniProt Q06187)
[13] = target: PRKD1 (human) (UniProt Q15139)
Sequence of PRKD1 (human) (Q15139 whole entry, looked up): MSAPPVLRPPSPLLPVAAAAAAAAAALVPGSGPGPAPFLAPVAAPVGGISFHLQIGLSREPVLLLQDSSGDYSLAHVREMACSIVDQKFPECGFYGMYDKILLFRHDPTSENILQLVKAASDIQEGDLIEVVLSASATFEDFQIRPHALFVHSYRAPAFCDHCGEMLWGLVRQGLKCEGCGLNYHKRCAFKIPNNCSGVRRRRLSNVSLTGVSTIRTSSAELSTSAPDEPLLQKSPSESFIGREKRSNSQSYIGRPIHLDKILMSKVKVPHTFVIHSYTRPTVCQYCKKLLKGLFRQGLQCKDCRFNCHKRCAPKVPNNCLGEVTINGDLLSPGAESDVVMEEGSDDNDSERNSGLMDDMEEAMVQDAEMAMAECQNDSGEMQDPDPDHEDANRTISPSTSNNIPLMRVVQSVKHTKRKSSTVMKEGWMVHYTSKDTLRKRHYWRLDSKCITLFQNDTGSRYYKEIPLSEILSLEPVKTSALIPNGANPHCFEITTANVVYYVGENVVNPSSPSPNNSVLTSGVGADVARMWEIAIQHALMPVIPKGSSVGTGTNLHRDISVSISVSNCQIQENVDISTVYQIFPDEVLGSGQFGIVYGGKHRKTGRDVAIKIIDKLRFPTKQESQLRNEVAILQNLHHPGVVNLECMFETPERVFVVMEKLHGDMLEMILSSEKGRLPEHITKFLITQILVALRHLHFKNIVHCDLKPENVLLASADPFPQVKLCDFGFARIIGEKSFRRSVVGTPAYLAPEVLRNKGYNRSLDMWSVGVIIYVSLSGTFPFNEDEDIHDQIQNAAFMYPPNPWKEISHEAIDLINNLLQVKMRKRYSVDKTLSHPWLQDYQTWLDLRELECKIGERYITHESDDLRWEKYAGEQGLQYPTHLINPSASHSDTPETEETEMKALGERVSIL

[14] = target: TAOK3 (human) (UniProt Q9H2K8)
[15] = target: ACVR1B (human) (UniProt P36896)
Sequence of ACVR1B (human) (P36896 whole entry, looked up): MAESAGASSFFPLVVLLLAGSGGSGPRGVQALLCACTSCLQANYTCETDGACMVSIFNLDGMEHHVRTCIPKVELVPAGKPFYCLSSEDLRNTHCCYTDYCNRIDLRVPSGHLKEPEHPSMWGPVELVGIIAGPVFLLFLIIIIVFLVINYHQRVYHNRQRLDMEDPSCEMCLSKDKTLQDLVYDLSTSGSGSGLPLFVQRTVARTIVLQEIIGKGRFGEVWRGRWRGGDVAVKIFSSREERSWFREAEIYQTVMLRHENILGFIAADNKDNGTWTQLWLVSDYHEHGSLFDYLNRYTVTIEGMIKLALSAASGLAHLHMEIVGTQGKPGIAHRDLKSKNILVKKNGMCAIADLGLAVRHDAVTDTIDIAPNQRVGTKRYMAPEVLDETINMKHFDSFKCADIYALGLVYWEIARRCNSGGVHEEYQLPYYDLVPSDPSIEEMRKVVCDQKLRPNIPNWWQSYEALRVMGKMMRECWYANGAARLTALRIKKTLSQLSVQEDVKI

[16] = target: PAK6 (human) (UniProt Q9NQU5)
[17] = target: ROCK1 (human) (UniProt Q13464)
[18] = target: CAMK1D (human) (UniProt Q8IU85)
[19] = target: CDK6 CCND1 (human) (UniProt Q00534+P24385)
[20] = target: MAPK8 (human) (UniProt P45983)
[21] = target: CAMK2D (human) (UniProt Q13557)
Sequence of CAMK2D (human) (Q13557 whole entry, looked up): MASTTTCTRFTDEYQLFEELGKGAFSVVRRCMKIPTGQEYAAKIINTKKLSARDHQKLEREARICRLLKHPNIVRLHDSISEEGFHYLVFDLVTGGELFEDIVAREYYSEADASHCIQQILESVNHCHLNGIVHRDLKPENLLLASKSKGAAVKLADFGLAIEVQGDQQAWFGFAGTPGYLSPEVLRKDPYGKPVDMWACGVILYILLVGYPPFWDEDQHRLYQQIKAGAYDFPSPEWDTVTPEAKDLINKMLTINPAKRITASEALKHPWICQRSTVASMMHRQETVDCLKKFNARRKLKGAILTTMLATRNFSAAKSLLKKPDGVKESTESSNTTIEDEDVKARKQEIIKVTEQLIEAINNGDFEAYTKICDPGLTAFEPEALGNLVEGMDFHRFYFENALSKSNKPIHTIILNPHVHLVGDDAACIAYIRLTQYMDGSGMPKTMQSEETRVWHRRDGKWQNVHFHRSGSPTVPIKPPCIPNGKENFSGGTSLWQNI

[22] = target: DYRK3 (human) (UniProt O43781)
[23] = target: CSK (human) (UniProt P41240)
Sequence of CSK (human) (P41240 whole entry, looked up): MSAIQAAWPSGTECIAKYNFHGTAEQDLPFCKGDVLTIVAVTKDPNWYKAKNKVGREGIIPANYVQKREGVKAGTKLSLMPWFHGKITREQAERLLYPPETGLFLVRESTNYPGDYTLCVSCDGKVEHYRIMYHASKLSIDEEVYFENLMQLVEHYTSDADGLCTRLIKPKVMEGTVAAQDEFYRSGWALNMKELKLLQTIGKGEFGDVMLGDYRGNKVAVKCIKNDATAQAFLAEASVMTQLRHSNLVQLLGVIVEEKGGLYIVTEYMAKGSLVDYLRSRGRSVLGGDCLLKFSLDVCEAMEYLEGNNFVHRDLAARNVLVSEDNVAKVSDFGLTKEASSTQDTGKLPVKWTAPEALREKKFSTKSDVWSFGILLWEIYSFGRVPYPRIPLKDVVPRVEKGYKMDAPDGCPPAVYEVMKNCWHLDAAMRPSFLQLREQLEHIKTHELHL

[24] = target: MAP4K2 (human) (UniProt Q12851)
[25] = target: INSR (human) (UniProt P06213)
[26] = target: STK33 (human) (UniProt Q9BYT3)
[27] = target: MAP3K8 (human) (UniProt P41279)
Sequence of MAP3K8 (human) (P41279 whole entry, looked up): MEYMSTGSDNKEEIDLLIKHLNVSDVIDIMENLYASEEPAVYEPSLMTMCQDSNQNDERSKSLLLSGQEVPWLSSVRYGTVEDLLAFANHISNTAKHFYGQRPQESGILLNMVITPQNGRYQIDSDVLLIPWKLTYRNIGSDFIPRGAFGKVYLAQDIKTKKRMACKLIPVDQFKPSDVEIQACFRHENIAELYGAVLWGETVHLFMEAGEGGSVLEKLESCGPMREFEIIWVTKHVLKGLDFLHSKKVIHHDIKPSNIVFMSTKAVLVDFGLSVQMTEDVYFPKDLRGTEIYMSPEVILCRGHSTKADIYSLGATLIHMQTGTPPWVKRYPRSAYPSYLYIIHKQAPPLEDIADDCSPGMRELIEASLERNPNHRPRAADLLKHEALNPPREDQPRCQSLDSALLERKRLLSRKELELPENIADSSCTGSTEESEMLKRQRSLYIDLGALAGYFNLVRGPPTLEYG

[28] = target: MAP3K5 (human) (UniProt Q99683)
[29] = target: CDK2 CCNA2 (human) (UniProt P24941+P20248)
[30] = target: NEK11 (human) (UniProt Q8NG66)
[31] = target: AXL (human) (UniProt P30530)
[32] = target: EPHA4 (human) (UniProt P54764)
[33] = target: SRPK2 (human) (UniProt P78362)
[34] = target: AKT3 (human) (UniProt Q9Y243)
[35] = target: MAP3K14 (human) (UniProt Q99558)
[36] = target: STK38 (human) (UniProt Q15208)
[37] = target: SLK (human) (UniProt Q9H2G2)
[38] = target: PRKACG (human) (UniProt P22612)
[39] = target: CSNK2A1 (human) (UniProt P68400)
[40] = target: FER (human) (UniProt P16591)
[41] = target: PBK (human) (UniProt Q96KB5)
Sequence of PBK (human) (Q96KB5 whole entry, looked up): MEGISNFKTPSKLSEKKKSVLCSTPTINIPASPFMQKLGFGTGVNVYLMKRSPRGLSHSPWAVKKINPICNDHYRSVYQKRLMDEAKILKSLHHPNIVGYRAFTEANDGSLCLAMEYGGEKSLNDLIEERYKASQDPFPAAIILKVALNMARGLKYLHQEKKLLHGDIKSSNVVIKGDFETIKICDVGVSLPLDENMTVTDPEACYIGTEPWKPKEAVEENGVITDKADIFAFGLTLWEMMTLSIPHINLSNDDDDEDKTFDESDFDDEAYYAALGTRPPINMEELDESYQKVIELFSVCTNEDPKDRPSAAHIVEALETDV

[42] = target: AURKC (human) (UniProt Q9UQB9)

Sequence of DAPK1 (human) (P53355 whole entry, looked up): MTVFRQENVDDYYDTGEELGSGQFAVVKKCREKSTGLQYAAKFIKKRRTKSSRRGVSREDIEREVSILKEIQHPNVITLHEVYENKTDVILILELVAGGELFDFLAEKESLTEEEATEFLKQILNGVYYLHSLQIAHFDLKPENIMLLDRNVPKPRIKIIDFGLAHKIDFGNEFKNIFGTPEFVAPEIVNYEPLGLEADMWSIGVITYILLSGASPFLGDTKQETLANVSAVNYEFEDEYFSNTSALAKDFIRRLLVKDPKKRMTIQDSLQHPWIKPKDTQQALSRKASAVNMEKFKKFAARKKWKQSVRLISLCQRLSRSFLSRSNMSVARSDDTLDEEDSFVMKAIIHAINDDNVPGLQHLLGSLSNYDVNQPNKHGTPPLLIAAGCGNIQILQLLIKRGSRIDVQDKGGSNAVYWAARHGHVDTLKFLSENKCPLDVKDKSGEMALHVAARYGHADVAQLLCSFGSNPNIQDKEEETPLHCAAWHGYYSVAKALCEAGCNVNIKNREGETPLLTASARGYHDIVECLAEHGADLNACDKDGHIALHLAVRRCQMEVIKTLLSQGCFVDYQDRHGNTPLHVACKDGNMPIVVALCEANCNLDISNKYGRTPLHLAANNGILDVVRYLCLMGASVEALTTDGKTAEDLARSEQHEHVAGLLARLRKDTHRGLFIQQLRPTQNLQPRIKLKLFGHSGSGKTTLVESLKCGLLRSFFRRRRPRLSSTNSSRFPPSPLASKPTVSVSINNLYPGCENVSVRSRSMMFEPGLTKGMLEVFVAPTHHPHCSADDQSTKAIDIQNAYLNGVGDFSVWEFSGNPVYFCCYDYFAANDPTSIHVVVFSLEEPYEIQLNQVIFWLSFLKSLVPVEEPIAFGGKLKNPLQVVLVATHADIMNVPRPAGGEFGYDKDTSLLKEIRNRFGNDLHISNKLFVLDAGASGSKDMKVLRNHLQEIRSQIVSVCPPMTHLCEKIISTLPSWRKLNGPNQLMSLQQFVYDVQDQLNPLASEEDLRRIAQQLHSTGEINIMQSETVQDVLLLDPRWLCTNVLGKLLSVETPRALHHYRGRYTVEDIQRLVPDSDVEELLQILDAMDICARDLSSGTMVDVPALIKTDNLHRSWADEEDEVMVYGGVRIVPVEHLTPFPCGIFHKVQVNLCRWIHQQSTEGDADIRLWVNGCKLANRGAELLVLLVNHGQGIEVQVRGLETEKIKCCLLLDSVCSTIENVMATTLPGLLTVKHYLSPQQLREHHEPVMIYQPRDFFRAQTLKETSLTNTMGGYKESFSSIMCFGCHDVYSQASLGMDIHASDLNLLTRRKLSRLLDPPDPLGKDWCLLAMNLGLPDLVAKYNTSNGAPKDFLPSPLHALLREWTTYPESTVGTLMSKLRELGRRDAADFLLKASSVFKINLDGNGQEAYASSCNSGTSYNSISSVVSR
Sequence of MAPK11 (human) (Q15759 whole entry, looked up): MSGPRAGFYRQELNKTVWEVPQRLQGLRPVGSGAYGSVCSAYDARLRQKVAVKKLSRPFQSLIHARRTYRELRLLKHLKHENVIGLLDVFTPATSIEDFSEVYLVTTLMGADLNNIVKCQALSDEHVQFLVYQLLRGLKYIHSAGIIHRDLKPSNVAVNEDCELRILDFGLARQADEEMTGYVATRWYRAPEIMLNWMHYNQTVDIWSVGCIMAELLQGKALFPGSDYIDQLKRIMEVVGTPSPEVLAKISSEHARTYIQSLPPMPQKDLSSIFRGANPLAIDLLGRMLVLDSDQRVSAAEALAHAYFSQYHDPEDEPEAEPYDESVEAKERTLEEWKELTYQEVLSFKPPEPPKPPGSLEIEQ

N#CC(C#N)=C(N)/C(C#N)=C/c1ccc(O)cc1 showed a residual activity [1] of 103%, a residual activity [2] of 97.4% and a residual activity [3] of 92.7%. The residual activity [4] was 92.4%, the residual activity [5] was 95.1% and the residual activity [6] was 100%. It also gave a residual activity [7] of 78.6%, a residual activity [8] of 97.4% and a residual activity [9] of 94.6%. It also gave a residual activity [10] of 98.8%, a residual activity [11] of 91.9% and a residual activity [12] of 99.7%. The residual activity [13] was 101%, the residual activity [14] was 102% and the residual activity [15] was 101%. It also gave a residual activity [16] of 97%, a residual activity [17] of 100% and a residual activity [18] of 98.9%. The residual activity [19] was 91.3%, the residual activity [20] was 100% and the residual activity [21] was 91.1%. The residual activity [22] was 97.7%, the residual activity [23] was 97.6% and the residual activity [24] was 100%. For the same compound, the residual activity [25] was 94.2%, the residual activity [26] was 93.2% and the residual activity [27] was 96%. For the same compound, the residual activity [28] was 103%, the residual activity [29] was 97.9% and the residual activity [30] was 97.2%. For the same compound, the residual activity [31] was 93.7%, the residual activity [32] was 96% and the residual activity [33] was 88.8%. For the same compound, the residual activity [34] was 95.8%, the residual activity [35] was 108% and the residual activity [36] was 96.9%. For the same compound, the residual activity [37] was 102%, the residual activity [38] was 96.8% and the residual activity [39] was 104%. For the same compound, the residual activity [40] was 91.1%, the residual activity [41] was 96.4% and the residual activity [42] was 101%.
Work on N#C/C(=C(/N)Sc1ccc(N)cc1)c1ccccc1C(F)(F)F yielded a residual activity [1] of 111%, a residual activity [2] of 105% and a residual activity [3] of 104%. For the same compound, the residual activity [4] was 88.7%, the residual activity [5] was 107% and the residual activity [6] was 112%. It also gave a residual activity [7] of 97.7%, a residual activity [8] of 102% and a residual activity [9] of 100%. For the same compound, the residual activity [10] was 103%, the residual activity [11] was 96.8% and the residual activity [12] was 93.5%. For the same compound, the residual activity [13] was 103%, the residual activity [14] was 98.6% and the residual activity [15] was 101%. It also gave a residual activity [16] of 107%, a residual activity [17] of 104% and a residual activity [18] of 129%. The residual activity [19] was 98%, the residual activity [20] was 112% and the residual activity [21] was 93.4%. For the same compound, the residual activity [22] was 105%, the residual activity [23] was 90.9% and the residual activity [24] was 85.7%. It also gave a residual activity [25] of 101%, a residual activity [26] of 92.2% and a residual activity [27] of 96.5%. The residual activity [28] was 108%, the residual activity [29] was 95.9% and the residual activity [30] was 97.7%. It also gave a residual activity [31] of 119%, a residual activity [32] of 99.3% and a residual activity [33] of 99.5%. It also gave a residual activity [34] of 96.2%, a residual activity [35] of 111% and a residual activity [36] of 93.1%. The residual activity [37] was 102%, the residual activity [38] was 101% and the residual activity [39] was 97.9%. For the same compound, the residual activity [40] was 105%, the residual activity [41] was 95.3% and the residual activity [42] was 97.5%.
With CO[C@H]1CC2CC[C@@H](C)[C@@](O)(O2)C(=O)C(=O)N2CCCC[C@H]2C(=O)OC([C@H](C)C[C@@H]2CC[C@@H](O)[C@H](OC)C2)CC(=O)[C@H](C)/C=C(\C)[C@@H](O)[C@@H](OC)C(=O)[C@H](C)C[C@H](C)/C=C/C=C/C=C/1C (stereo partly specified) the residual activity [1] was 105%, the residual activity [2] was 94.2% and the residual activity [3] was 88.5%. It also gave a residual activity [4] of 97.7%, a residual activity [5] of 99.4% and a residual activity [6] of 113%. It also gave a residual activity [7] of 101%, a residual activity [8] of 107% and a residual activity [9] of 105%. The residual activity [10] was 108%, the residual activity [11] was 95.6% and the residual activity [12] was 101%. For the same compound, the residual activity [13] was 98.2%, the residual activity [14] was 106% and the residual activity [15] was 97.6%. The residual activity [16] was 112%, the residual activity [17] was 103% and the residual activity [18] was 105%. The residual activity [19] was 99.8%, the residual activity [20] was 100% and the residual activity [21] was 96.1%. For the same compound, the residual activity [22] was 105%, the residual activity [23] was 101% and the residual activity [24] was 111%. The residual activity [25] was 90.3%, the residual activity [26] was 105% and the residual activity [27] was 99.8%. It also gave a residual activity [28] of 107%, a residual activity [29] of 101% and a residual activity [30] of 73.6%. The residual activity [31] was 99.5%, the residual activity [32] was 115% and the residual activity [33] was 104%. The residual activity [34] was 97.8%, the residual activity [35] was 105% and the residual activity [36] was 92.8%. For the same compound, the residual activity [37] was 98.7%, the residual activity [38] was 113% and the residual activity [39] was 94.7%. For the same compound, the residual activity [40] was 92%, the residual activity [41] was 103% and the residual activity [42] was 95.6%.

From the kinase profiling compilation of Christmann-Franck et al. (2016)
